In patent publication US6147097A, “Imidazole derivatives as anti-HIV agents” (Shionogi & Co., Ltd., priority 1994, dated 2000):
pIC50: −log10 of the molar value. ≈ marks a conversion by molar mass, not a printed value. Like-named read-outs stand apart in the source and are kept apart here.

What was measured:
HIV (HTLV-IIIB strain) = experiment: microbe, parasite or virus in culture; type: cell-based; conditions: MT-4 cells, 60 pfu HIV per well, 37° C., 5 days, MTT, Tables 1 and 2
Description: The anti-HIV activity of each of the compounds produced in Examples was assayed by the following procedures. […] On the other hand, the test compound was diluted with the above culture medium to predetermined concentrations and distributed in 50 μl aliquots into a 96-well microtiter plate. Then, d suspension of MT-4 cells was added in 100 μl aliquots (3.5×10^4 cells per well) and then the above HIV-containing supernatant diluted with the above culture medium was added, 50 μl (60 pfu (plaque forming units)) per well. (2) The plate was incubated in a CO2 incubator at 37° C. for 5 days. Then, 30 μl/well of 3-(4,5-dimethyl thiazol-2-yl)-2,5-diphenyltetrazolium bromide (MTT) (5 mg/ml PBS) was added and the incubation was further continued for 1 hour. The surviving cells reducing MTT yield precipitation of formazan. Therefore, 150 μl portions of the culture supernatant were removed from all wells and, instead, 150 μl of a solution (10% Triton X-100 and 0.4% (v/v) HCl-added isopropyl alcohol) was added. The plate was shaken on a plate mixer to dissolve the formazan.

[1] = target: T1, purified recombinant HIV-1 reverse transcriptase (Human immunodeficiency virus type 1 group M subtype B, UniProt P04585); experiment: reverse transcriptase inhibition, poly(rA)/(dT) template primer, [3H]dTTP uptake; type: biochemical
T1 construct: purified recombinant HIV-1 reverse transcriptase; made in house; host or cells: Escherichia coli
Description: The reverse transcriptase activity of each of the compounds synthesized in Examples was assayed by the following procedures.
Using the purified recombinant HIV-1 reverse transcriptase RT, E.C. 2.7.7.49) obtained by expression in Escherichia Coli, a 96-well plate assay system was established for assaying a large number of samples. The RT inhibitory activity was determined as follows. To 11 μl of a solution of the test inhibitor in water or MSO was added 100 μl of a reaction mixture (0.1 unit/100 μl RT, 50 mM Tris-HCl pH 8.3, 150 mM KCl, 10 mM MgCl2, 3 mM dithiothreitol, 0.1% Nonidet P-40, 10 μg/ml. poly(rA) and 10 μg/ml (dT)12-1.8 as template and primer, and 4 μM dTTP, 1 μCi/100 μl [^3 H]dTTP as substrate) and the mixture was incubated at 37° C. for 1 hour and, then, immediately cooled on ice. Using a cell harvester, the reaction mixture was transferred to a DEAE-filter mat (LKB-Pharmacia). Then, using the wash line of the cell harvester, the cells were washed twice with 5% Na2 HPO4 /H2 O and once with water and dried at 95° C. for 15 minutes. […] The inhibitory activity was expressed in percent inhibition relative to the uptake on water or DMSO control.

[2] = cytotoxicity in MT-4 cells (MTT, culture medium in place of HIV); type: cell-based; conditions: human, mt-4 cells
Description: The anti-HIV activity of each of the compounds produced in Examples was assayed by the following procedures. (1) Human T cell line MOLT-4 clone 8 persistently infected by HIV (HTLV-IIIB strain) was cultured in an RPMI-1640 medium supplemented with 10% fetal calf serum, the culture supernatant was filtered, and the titer of virus was determined; the culture supernatant was stored at -80° C. On the other hand, the test compound was diluted with the above culture medium to predetermined concentrations and distributed in 50 μl aliquots into a 96-well microtiter plate. Then, d suspension of MT-4 cells was added in 100 μl aliquots (3.5×10^4 cells per well) and then the above HIV-containing supernatant diluted with the above culture medium was added, 50 μl (60 pfu (plaque forming units)) per well. (2) The plate was incubated in a CO2 incubator at 37° C. for 5 days. Then, 30 μl/well of 3-(4,5-dimethyl thiazol-2-yl)-2,5-diphenyltetrazolium bromide (MTT) (5 mg/ml PBS) was added and the incubation was further continued for 1 hour. The surviving cells reducing MTT yield precipitation of formazan. Therefore, 150 μl portions of the culture supernatant were removed from all wells and, instead, 150 μl of a solution (10% Triton X-100 and 0.4% (v/v) HCl-added isopropyl alcohol) was added. The plate was shaken on a plate mixer to dissolve the formazan. The OD of formazan was measured with a microreader at 560 nm arid 690 nm (reference wavelength) and the result was compared with that of control.
The cytotoxicity of each of the compounds produced in Examples was assayed. In place of the HIV-containing supernatant (the virus suspension) in (1) in Test Example 1, 50 μl of the culture medium was added to each well, and the cytotoxicity was determined in the same manner as that for (2) in Test Example 1.

[3] = Human immunodeficiency virus 1, IIIB, MT4, 120 h, read-out: EC50

| Compound | EC50 (HIV (HTLV-IIIB strain)) [µg/mL] | RT IC50 ([1]; pH 8.3, 37° C., 1 hour, Tables 5 and 6) [µg/mL] | EC50 (HIV (HTLV-IIIB strain); [3]) [µg/mL] | CC50 at 120 h [2] [µg/mL] | pIC50 [1] |
| --- | --- | --- | --- | --- | --- |
| 2-aminoethyl-1-n-butyl-5-(3,5-dichlorophenylthio)-4-isopropyl-1H-imidazole [Compound I-68] | 0.016 | 0.61 | – | – | – |
| CC(C)c1nc(CO)n(Cc2ccc([N+](=O)[O-])cc2)c1Sc1cc(Cl)cc(Cl)c1 [Compound 103a, 5-(3,5-dichlorophenylthio)-2-hydroxymethyl-4-isopropyl-1-(p-nitrobenzyl)-1H-imidazole] | – | – | < 0.008 | 6.3 to 12.5 (≈ 13.9 to 27.6 µM) | 4.54 |
| CC(C)c1nc(CO)n(Cc2cccc([N+](=O)[O-])c2)c1Sc1cc(Cl)cc(Cl)c1 [Compound 103b, 5-(3,5-dichlorophenylthio)-2-hydroxymethyl-4-isopropyl-1-(m-nitrobenzyl)-1H-imidazole] | – | – | 0.008 (≈ 0.0177 µM) | 50 (≈ 111 µM) | 4.60 |
| CC(C)c1nc(CO)n(Cc2ccccc2[N+](=O)[O-])c1Sc1cc(Cl)cc(Cl)c1 [Compound 103c, 5-(3,5-dichlorophenylthio)-2-hydroxymethyl-4-isopropyl-1-(o-nitrobenzyl)-1H-imidazole] | – | – | 0.06 to 0.13 (≈ 0.133 to 0.287 µM) | 6.3 to 12.5 (≈ 13.9 to 27.6 µM) | 4.24 |
| CC(C)c1nc(CO)n(Cc2ccc(N)cc2)c1Sc1cc(Cl)cc(Cl)c1 [Compound 104a, 1-(p-aminobenzyl)-5-(3,5-dichlorophenylthio)-2-hydroxymethyl-4-isopropyl-1H-imidazole] | – | – | < 0.008 | 12.5 to 25 (≈ 29.6 to 59.2 µM) | 5.51 |
| CC(C)c1nc(CO)n(Cc2cnc3ccccc3c2)c1Sc1cc(Cl)cc(Cl)c1 [Compound 109, 2-hydroxymethyl-5-(3,5-dichlorophenylthio)-4-isopropyl-1-(quinolin-3-ylmethyl)-1H-imidazole] | – | – | 0.008 (≈ 0.0175 µM) | 100 (≈ 218 µM) | 5.36 |
| CC(C)c1nc(CO)n(CCc2ccccn2)c1Sc1cc(Cl)cc(Cl)c1 [Compound 112a, 5-(3,5-dichlorophenylthio)-4-isopropyl-2-hydroxymethyl-1-(2-(2-pyridyl)ethyl)-1H-imidazole] | – | – | 0.008 (≈ 0.0189 µM) | 6.3 (≈ 14.9 µM) | 5.64 |
| CC(C)c1nc(CO)n(CCCc2ccccn2)c1Sc1cc(Cl)cc(Cl)c1 [Compound 112b, 5-(3,5-dichlorophenylthio)-4-isopropyl-2-hydroxymethyl-1-(3-(2-pyridyl)propyl)-1H-imidazole] | – | – | < 0.008 | 6.3 to 12.5 (≈ 14.4 to 28.6 µM) | 5.22 |
| CC(C)c1nc(CO)n(Cc2ccc(=O)[nH]c2)c1Sc1cc(Cl)cc(Cl)c1 [Compound 116a, 5-(3,5-dichlorophenylthio)-2-hydroxymethyl-1-(6-oxo-1,6-dihydro-pyridin-3-yl)methyl-4-isopropyl-1H-imidazole] | – | – | 0.004 (≈ 0.00943 µM) | 30.7 (≈ 72.3 µM) | 5.51 |
| CC(C)c1nc(CO)n(Cc2ccc[nH]c2=O)c1Sc1cc(Cl)cc(Cl)c1 [Compound 116b, 5-(3,5-dichlorophenyl-thio)-2-hydroxymethyl-1-(2(1H)-pyridon-3-ylmethyl)-4-isopropyl-1H-imidazole] | – | – | 0.016 (≈ 0.0377 µM) | 50 (≈ 118 µM) | 5.12 |
| CCOC(=O)Cn1c(COCc2ccccc2)nc(C(C)C)c1Sc1cc(Cl)cc(Cl)c1 [Compound 118b] | – | – | 0.25 (≈ 0.507 µM) | 12.5 to 25 (≈ 25.3 to 50.7 µM) | < 3.69 |
| CC(C)c1nc(COCc2ccccc2)n(CCO)c1Sc1cc(Cl)cc(Cl)c1 [Compound 118c, 2-[2-benzyloxymethyl-5-(3,5-dichlorophenylthio)-4-i-sopropyl-1H-imidazol-1-yl]ethanol] | – | – | 1 (≈ 2.22 µM) | 6.3 to 12.5 (≈ 14 to 27.7 µM) | < 3.65 |
| Cc1ncccc1Cn1c(CO)nc(C(C)C)c1Sc1cc(Cl)cc(Cl)c1 [Compound 119a, 5-(3,5-dichlorophenylthio)-2-hydroxymethyl-4-isopropyl-1-(2-methylpyridin-3-ylmethyl)-1H-imidazole] | – | – | < 0.008 | 12.5 (≈ 29.6 µM) | 4.83 |
| CC(C)c1nc(CO)n(CCO)c1Sc1cc(Cl)cc(Cl)c1 [Compound 119b, 2-(5-(3,5-dichlorophenyl-thio)-2-hydroxymethyl-4-isopropyl-1H-imidazol-1-yl)ethanol] | – | – | < 0.008 | 12.5 to 25 (≈ 34.6 to 69.2 µM) | 5.77 |
| CCn1c(CCOCc2ccccc2)nc(C(C)C)c1Sc1cc(Cl)cc(Cl)c1 [Compound 122a] | – | – | 0.13 (≈ 0.289 µM) | 6.3 (≈ 14 µM) | 4.37 |
| CC(C)c1nc(CCOCc2ccccc2)n(Cc2ccncc2)c1Sc1cc(Cl)cc(Cl)c1 [Compound 122b, 4-[2-(2-benzyloxyethyl)-5-(3,5-dichlorophenylthio)-4-isopropyl-1H-imidazol-1-ylmethy]pyridine] | – | – | 0.5 to 1 (≈ 0.976 to 1.95 µM) | 6.3 (≈ 12.3 µM) | 4.15 |
| CCn1c(CCO)nc(C(C)C)c1Sc1cc(Cl)cc(Cl)c1 [Compound 123a, 2-[5-(3,5-dichlorophenylthio)-1-ethyl-4-isopropyl-1H-imidazol-2-yl]ethanol] | – | – | 0.0006 (≈ 0.00167 µM) | 6.3 to 12.5 (≈ 17.5 to 34.8 µM) | 6.38 |
| CC(C)c1nc(CCO)n(Cc2ccncc2)c1Sc1cc(Cl)cc(Cl)c1 [Compound 123b, 2-[5-(3,5-dichlorophenylthio)-4-isopropyl-1-(pyridin-4-ylmethyl)-1H-imidazol-2-yl]ethanol] | – | – | 0.003 (≈ 0.0071 µM) | 12.5 to 25 (≈ 29.6 to 59.2 µM) | 6.45 |
| CC(C)c1nc(CCO)n(Cc2ccc([N+](=O)[O-])cc2)c1Sc1cc(Cl)cc(Cl)c1 [Compound 126a, 5-(3,5-dichlorophenylthio)-2-(2-hydroxyethyl)-4-isopropyl-1-p-nitrobenzyl-1H-imidazole] | – | – | 0.008 (≈ 0.0172 µM) | 6.3 (≈ 13.5 µM) | 5.59 |
| CC(C)c1nc(CCO)n(Cc2cccc([N+](=O)[O-])c2)c1Sc1cc(Cl)cc(Cl)c1 [Compound 126b, 5-(3,5-Dichlorophenylthio)-2-(2-hydroxyethyl)-4-isopropyl-1-m-nitrobenzyl-1H-imidazole] | – | – | 0.008 to 0.016 (≈ 0.0172 to 0.0343 µM) | 3.1 to 6.3 (≈ 6.65 to 13.5 µM) | 5.07 |
| CC(C)c1nc(CCO)n(Cc2ccccc2[N+](=O)[O-])c1Sc1cc(Cl)cc(Cl)c1 [Compound 126c, 5-(3,5-Dichlorophenylthio)-2-(2-hydroxyethyl)-4-isopropyl-1-o-nitrobenzyl-1H-imidazole] | – | – | 0.13 (≈ 0.279 µM) | 6.3 (≈ 13.5 µM) | 4.22 |
| CC(C)c1nc(CCOC(N)=O)n(Cc2ccc([N+](=O)[O-])cc2)c1Sc1cc(Cl)cc(Cl)c1 [Compound 128a, 2-(2-carbamoyloxyethyl)-5-(3,5-dichlorophenylthio)-4-isopropyl-1-(p-nitrobenzyl)-1H-imidazole] | – | – | 3.1 to 6.3 (≈ 6.09 to 12.4 µM) | 6.3 (≈ 12.4 µM) | 3.98 |
| CC(C)c1nc(CCOC(N)=O)n(Cc2cccc([N+](=O)[O-])c2)c1Sc1cc(Cl)cc(Cl)c1 [Compound 128b, 2-(2-Carbamoyloxyethyl)-5-(3,5-dichlorophenylthio)-4-isopropyl-1-(m-nitrobenzyl)-1H-i-imidazole] | – | – | 0.13 (≈ 0.255 µM) | 6.3 to 12.5 (≈ 12.4 to 24.5 µM) | < 3.71 |
